Assay in all cases: competitive isoTOP-ABPP
Type in all cases: binding
What all share (conditions): 50 uM_231_sol_in vitro

Experiment [1] has as its target T1, NT5DC1 5-nucleotidase domain-containing protein 1 (Homo sapiens, UniProt Q5TFE4).
T1 construct: isoTOP-ABPP experiments performed in cell lysates (in vitro); endogenous in cells; host or cells: soluble proteome of human cancer cell lines (MDA-MB-231; Ramos and Jurkat also prepared)
T1 sequence (Q5TFE4 1-455): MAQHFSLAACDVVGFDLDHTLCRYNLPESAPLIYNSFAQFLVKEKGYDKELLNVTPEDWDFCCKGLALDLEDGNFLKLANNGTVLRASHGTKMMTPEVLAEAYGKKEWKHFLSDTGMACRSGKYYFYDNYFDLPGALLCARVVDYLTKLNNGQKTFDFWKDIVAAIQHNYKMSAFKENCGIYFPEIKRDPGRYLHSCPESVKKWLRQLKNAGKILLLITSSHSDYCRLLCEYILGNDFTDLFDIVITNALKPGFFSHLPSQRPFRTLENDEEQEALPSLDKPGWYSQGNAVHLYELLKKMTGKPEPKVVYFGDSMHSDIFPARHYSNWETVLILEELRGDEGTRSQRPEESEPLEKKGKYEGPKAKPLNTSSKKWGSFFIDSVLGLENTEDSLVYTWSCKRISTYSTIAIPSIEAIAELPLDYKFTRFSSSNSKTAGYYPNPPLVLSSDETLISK
In short, it runs like this: (§1)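 Here, isoTOP-ABPP measures loss of STP-alkyne labeling at individual lysines after fragment exposure in lysate. Activated esters are dosed at 50 μM, guanidinylating agents at 100 μM; the probe follows at 0.1 mM for 1 h. R ≥4 marks a liganded lysine.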

Experiment [2] has as its target T2, NUDT22 Nucleoside diphosphate-linked moiety X motif 22 (Homo sapiens, UniProt Q9BRQ3).
T2 construct: isoTOP-ABPP experiments performed in cell lysates (in vitro); endogenous in cells; host or cells: soluble proteome of human cancer cell lines (MDA-MB-231; Ramos and Jurkat also prepared)
T2 sequence (Q9BRQ3 1-303): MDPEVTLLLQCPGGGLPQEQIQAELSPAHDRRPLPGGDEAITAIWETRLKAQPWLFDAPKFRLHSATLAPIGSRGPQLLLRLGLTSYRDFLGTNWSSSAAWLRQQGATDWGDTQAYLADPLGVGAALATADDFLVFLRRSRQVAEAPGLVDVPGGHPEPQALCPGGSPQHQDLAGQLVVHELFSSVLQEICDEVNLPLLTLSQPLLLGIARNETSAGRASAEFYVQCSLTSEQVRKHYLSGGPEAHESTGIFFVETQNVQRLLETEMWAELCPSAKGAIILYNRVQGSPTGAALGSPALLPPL
In short, it runs like this:
as §1

For experiment [3], the target named is T3, CDK2 Cyclin-dependent kinase 2 (Homo sapiens, UniProt P24941).
T3 construct: isoTOP-ABPP experiments performed in cell lysates (in vitro); endogenous in cells; host or cells: soluble proteome of human cancer cell lines (MDA-MB-231; Ramos and Jurkat also prepared)
In outline:
as §1

Experiment [4] concerns the target T4, SLC25A5 ADP/ATP translocase 2 (Homo sapiens, UniProt P05141).
T4 construct: isoTOP-ABPP experiments performed in cell lysates (in vitro); endogenous in cells; host or cells: MDA-MB-231 soluble lysate
T4 sequence (P05141 1-298): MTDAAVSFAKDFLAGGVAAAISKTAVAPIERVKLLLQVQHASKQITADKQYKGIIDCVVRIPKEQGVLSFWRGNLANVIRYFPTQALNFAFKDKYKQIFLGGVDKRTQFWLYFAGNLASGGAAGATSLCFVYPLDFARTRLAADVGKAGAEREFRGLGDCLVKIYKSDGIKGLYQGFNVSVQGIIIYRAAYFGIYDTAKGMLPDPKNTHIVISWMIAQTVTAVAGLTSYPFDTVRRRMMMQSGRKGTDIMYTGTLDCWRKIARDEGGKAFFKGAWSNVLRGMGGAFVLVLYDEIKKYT
In outline:
as §1

For experiment [5], the target named is T5, DNMT1 DNA (cytosine-5)-methyltransferase 1 (Homo sapiens, UniProt P26358).
T5 construct: isoTOP-ABPP experiments performed in cell lysates (in vitro); endogenous in cells; host or cells: soluble proteome of human cancer cell lines (MDA-MB-231; Ramos and Jurkat also prepared)
T5 sequence (P26358 whole entry): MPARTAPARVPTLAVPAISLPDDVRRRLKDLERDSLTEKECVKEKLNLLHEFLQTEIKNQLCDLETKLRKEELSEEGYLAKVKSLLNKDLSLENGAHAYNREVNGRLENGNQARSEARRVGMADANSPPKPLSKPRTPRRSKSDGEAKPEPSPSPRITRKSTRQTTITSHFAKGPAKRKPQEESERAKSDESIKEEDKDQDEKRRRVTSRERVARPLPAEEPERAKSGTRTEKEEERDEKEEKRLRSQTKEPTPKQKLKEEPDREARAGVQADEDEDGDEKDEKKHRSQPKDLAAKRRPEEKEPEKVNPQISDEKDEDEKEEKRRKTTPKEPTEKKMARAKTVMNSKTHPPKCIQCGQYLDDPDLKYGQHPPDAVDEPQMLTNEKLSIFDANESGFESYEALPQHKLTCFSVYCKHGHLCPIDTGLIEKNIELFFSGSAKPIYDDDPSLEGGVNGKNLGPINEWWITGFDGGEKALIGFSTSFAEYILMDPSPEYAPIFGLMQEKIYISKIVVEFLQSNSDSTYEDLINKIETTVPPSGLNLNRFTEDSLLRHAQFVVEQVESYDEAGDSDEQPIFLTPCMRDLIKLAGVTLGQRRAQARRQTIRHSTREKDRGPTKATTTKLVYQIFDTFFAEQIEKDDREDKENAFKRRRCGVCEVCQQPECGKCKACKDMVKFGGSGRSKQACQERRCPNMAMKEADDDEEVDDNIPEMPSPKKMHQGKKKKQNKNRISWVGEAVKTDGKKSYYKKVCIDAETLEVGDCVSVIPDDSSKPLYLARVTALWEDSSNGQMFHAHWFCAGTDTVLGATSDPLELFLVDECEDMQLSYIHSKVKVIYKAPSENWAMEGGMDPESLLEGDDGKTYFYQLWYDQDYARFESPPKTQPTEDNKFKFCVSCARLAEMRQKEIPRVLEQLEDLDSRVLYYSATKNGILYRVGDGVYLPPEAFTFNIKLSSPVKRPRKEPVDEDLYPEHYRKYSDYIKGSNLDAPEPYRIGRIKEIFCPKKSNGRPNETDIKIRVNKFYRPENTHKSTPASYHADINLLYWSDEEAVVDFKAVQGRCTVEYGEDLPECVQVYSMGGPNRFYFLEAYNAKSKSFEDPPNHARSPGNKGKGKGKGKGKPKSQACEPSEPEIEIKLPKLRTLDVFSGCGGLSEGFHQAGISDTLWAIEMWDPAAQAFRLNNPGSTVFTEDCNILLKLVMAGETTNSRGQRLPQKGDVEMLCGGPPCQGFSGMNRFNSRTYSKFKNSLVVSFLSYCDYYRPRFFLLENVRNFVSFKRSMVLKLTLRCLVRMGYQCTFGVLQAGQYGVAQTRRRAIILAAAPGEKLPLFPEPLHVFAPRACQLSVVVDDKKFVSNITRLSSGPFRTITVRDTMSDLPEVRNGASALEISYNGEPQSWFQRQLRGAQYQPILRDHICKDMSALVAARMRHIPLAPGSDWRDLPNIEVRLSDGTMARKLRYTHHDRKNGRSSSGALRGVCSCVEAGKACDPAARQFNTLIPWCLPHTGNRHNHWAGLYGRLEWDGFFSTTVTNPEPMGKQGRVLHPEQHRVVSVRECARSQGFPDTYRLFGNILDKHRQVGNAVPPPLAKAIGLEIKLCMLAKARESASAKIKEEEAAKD
In short, it runs like this:
as §1

For experiment [6], the target named is T6, ARL6IP1 ADP-ribosylation factor-like protein 6-interacting (Homo sapiens, UniProt Q15041).
T6 construct: isoTOP-ABPP experiments performed in cell lysates (in vitro); endogenous in cells; host or cells: soluble proteome of human cancer cell lines (MDA-MB-231; Ramos and Jurkat also prepared)
T6 sequence (Q15041 whole entry): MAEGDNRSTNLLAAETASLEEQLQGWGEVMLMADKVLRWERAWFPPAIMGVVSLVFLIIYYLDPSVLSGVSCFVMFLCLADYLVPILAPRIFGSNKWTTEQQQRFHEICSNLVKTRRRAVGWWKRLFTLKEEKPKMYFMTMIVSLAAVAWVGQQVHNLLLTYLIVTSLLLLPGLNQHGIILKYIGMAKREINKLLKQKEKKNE
In outline: as §1

For `O=C(CCc1ccc2c(c1)OCO2)Oc1ccc([N+](=O)[O-])cc1[N+](=O)[O-]` [fragment 45, 2,4-Dinitrophenyl 3-(benzo[d][1,3]dioxol-5-yl)propanoate], the “isoTOP-ABPP ratio, lysine Q5TFE4_K123” value in experiment [1] stood at 2.1. The “isoTOP-ABPP ratio, lysine Q9BRQ3_K60” value in experiment [2] is reported as 1.7. In addition, in experiment [3], the “isoTOP-ABPP ratio, lysine P24941_K33” value was determined as 4.6. In experiment [4], the “isoTOP-ABPP ratio, lysine P05141_K23” value is 1.2. In experiment [5], the “isoTOP-ABPP ratio, lysine P26358_K45” value was determined as 1.0. In addition, in experiment [6], the “isoTOP-ABPP ratio, lysine Q15041_K188” value worked out at 2.2.
Regarding `O=C(ON1C(=O)CCC1=O)c1cc(C(F)(F)F)cc(C(F)(F)F)c1` [fragment 46, 3,5-Bis(trifluoromethyl)benzoic acid NHS ester], in experiment [1], the “isoTOP-ABPP ratio, lysine Q5TFE4_K123” value was 20.0. Also, the “isoTOP-ABPP ratio, lysine Q9BRQ3_K60” value in experiment [2] is reported as 0.9. Also, in experiment [3], the “isoTOP-ABPP ratio, lysine P24941_K33” value is 0.9. Also, in experiment [4], the “isoTOP-ABPP ratio, lysine P05141_K23” value amounted to 0.9. Besides, the “isoTOP-ABPP ratio, lysine P26358_K45” value in experiment [5] came out at 2.4. Further, the “isoTOP-ABPP ratio, lysine Q15041_K188” value in experiment [6] was found to be 1.2.

(Values after patent US20210255193A1, “LYSINE REACTIVE PROBES AND USES THEREOF” (The Scripps Research Institute, priority 2017, published 2021).)
